Experimental data published in US8372408B2, “Use of Phaeodactylum algae extract for depigmenting the skin” (LVMH Recherche, priority 2007, dated 2013).
Residues, ends and D or L forms follow the SMILES beside them. *: point of attachment. Cbz = O=C(OCc1ccccc1)*

What was measured:
[1] = target: T1, proteasome (trypsin-like activity) of MNT1 cells (Homo sapiens, UniProt Q99436); assay: Proteasome LSTR (trypsin-like) activity assay on lyzates of treated MNT1 cells; format: cell-based; settings: for Proteasome activity at 72 hours, Trypsin-like: MNT1 cells lyzed 72 hours after treatment, palmitic or linoleic acid 25 μM, Phaeodactylum 5 μg/ml, Mg132 120 nM where stated
T1 construct: introduce in duplicate a fixed volume of cell lyzate; endogenous in cells; host or cells: MNT1 human melanocyte line (lysate)
T1 sequence (Q99436 44-277): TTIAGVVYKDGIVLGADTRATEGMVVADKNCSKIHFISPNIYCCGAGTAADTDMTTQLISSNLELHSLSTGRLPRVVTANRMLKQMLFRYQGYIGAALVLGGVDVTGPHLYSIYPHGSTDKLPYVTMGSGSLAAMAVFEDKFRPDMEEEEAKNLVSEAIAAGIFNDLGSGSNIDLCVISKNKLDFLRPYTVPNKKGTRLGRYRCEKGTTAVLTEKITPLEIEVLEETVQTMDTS
Method: 2.1 Treatment of MNT1 Cells (Human Melanocyte Cell Lines) in Order to Assay the Proteasome and Tyrosinase Activities MNT1, 10^6 cells/dish 35 mm in diameter, in triplicate
Treatment on D1 • Linoleic acid 25 μM • Palmitic acid 25 μM • Phaeodactylum 5 μg/ml +1% BSA+Vitamin E 50 μM+Vitamin C 1 mM • Linoleic acid 25 μM • Palmitic acid 25 μM • Phaeodactylum 5 μg/ml Stirring with a magnetic bar at 37° C. for 1 hour • 2nd treatment on D4 +Cycloheximide 1 μg/ml (protein synthesis inhibitor)
+120 nM Mg132 for the assay of the tyrosinase activity. • Preparation of the lyzates after 4 hours 2 rinses with PBS (phosphate-buffered saline)
On a bed of ice; recovery in 150 μl of lysis buffer by scraping.
Freezing at […]. • Protein assay via the Bradford method • Proteasome activity assay The cells are rinsed twice with PBS and each peptidase activity of the proteasome is then determined by using a fluorogenic peptide substrate specific for each of the activities, in the presence and in the absence of a specific proteasome inhibitor, MG 132 (Leu-Leu-Leucinal). The peptide substrate products are the following: Leu-Leu-Val-Tyr-amc (LLVY-amc) for the chymotrypsin-like activity, Leu-Leu-Glu-na (LLE-na) for the post-glutamic hydrolase activity and Leu-Ser-Thr-Arg-amc (LSTR-amc) for the trypsin-like activity. The principle of the assay consists in monitoring over time the increase in fluorescence due to the release of the fluorophores aminomethylcoumarin or β-naphthylamine from the fluorogenic peptides. […]
Proteasome (LSTR Activity (Trypsin-Like)) Nt Boc LSTR-MCA→Nt Boc LSTR+MCA fluorescent Reading on a spectrofluorimeter at an excitation wavelength of 350 nm and an emission wavelength of 440 nm. c.4—Assay of the LSTR Activity • In a 96-well plate, introduce in duplicate a fixed volume of cell lyzate (determined from the lowest protein concentration of the samples, which should correspond to 50 μg of protein) and make up to 100 μl with TRIS buffer. • Add 100 μl of LSTR-MCA substrate prediluted to 80 μM in the TRIS buffer (40 μM final). • In parallel, check that it is indeed the proteasome activity by testing the inhibitor Mg132. • Add to 50 μg of protein 10 μl of solution of Mg132 prediluted to 400 μM in the TRIS buffer (20 μM final) and make up to 100 μl with TRIS buffer. Next, add 100 μl of LSTR substrate prediluted to 80 μM in the TRIS buffer (40 μM final). • Take the spectrofluorimeter readings at an excitation wavelength of 355 nm and an emission wavelength of 460 nm at a gain of 30, every 2 minutes, for 30 minutes.
The raw results are expressed in F.U./min. […]
For the assay of the proteasome activities, the cells were lyzed at 72 hours after the cell treatment, and the protein concentration was determined.

[2] = system: tyrosinase of MNT-1 melanocytes; assay: Measurement of the tyrosinase (dopa-oxidase) activity in lyzates of treated MNT1 cells; format: cell-based, human; settings: for Tyrosinase activity at 72 hours: dopa-oxidase activity at 475 nm, MNT1 lyzed 72 hours after treatment, palmitic or linoleic acid 25 μM, Phaeodactylum 5 μg/ml, Mg132 120 nM where stated
Method: 2.1D: Measurement of the tyrosinase activity
The assay is based on measuring the dopa-oxidase activity of tyrosinase. The principle of the assay is based on the detection of dopachrome, which absorbs at 475 nm on FLUOstar (BMG)
Materials: • Lysis buffer • Substrate: L-DOPA (Sigma, D-9628, MW 197.2) at 10 mM in PBS, prepared extemporaneously due to the autoxidation of L-Dopa.
Human melanocytes in culture were treated with 25 μM of linoleic acid (±120 nM Mg132) or 25 μM of palmitic acid (±120 nM Mg132) or 5 μg/ml of Phaeodactylum (±120 nM Mg132) in MNT1 medium containing 1% BSA, 50 μM vitamin E and 1 mM vitamin C. The melanocytes were recovered and lyzed 72 hours after treatment. 50 μg of extract are then incubated with 1 mM of […] for one hour at 37° C. Measurement of the tyrosinase activity is performed at 475 nm every 2 minutes using a microplate reader thermostatically maintained at 37° C.
The Dopa-oxidase activity is obtained as OD/min/mg of protein. The blank is prepared with lysis buffer in the presence of L-DOPA.

trypsin-like peptidase activity of the proteasome, change in words ([1]; 72 hours after addition, MNT-1 melanocytes, FIG. 1C)	Proteasome activity at 72 hours, Trypsin-like [1]	Compound	tyrosinase activity, change in words ([2]; 72 hours after treatment of MNT-1 melanocytes, FIG. 5)	Tyrosinase activity at 72 hours [2]
increase and do so significantly	2848 ± 424 pmol/min/mg	CCCCC/C=C\C/C=C\CCCCCCCC(=O)O [Linoleic acid]	significant decrease	9.65 ± 2 OD/min
–	627 ± 282 pmol/min/mg	CC(C)C[C@@H](C=O)NC(=O)[C@H](CC(C)C)NC(=O)[C@H](CC(C)C)NC(=O)OCc1ccccc1 [Control + Mg132, Z-Leu-Leu-Leu-CHO] (Cbz-Leu-Leu-Leu-aldehyde)	–	18.35 ± 1.55 OD/min
–	1998 ± 261 pmol/min/mg	CCCCCCCCCCCCCCCC(=O)O [Palmitic acid]	–	18.75 ± 1.9 OD/min
